According to patent US11091444B2, “Hydantoins that modulate BACE-mediated app processing” (BUCK INSTITUTE FOR RESEARCH ON AGING, priority 2013, dated 2021):
Read-outs that look alike come from different tables or passages of the source.

Columns and labels:
[1] = biological target: TRX-eAPP575-624 (Homo sapiens (Human), UniProt P05067); experiment: SPR (Biacore) binding to APP ectodomain fragment
Experimental: The binding affinity of the compounds for the ectodomain of APP was determined using SPR. […] The eAPP was crosslinked linked to the CM5 Biacore chips (GE Healthcare).
FC1 served as a reference cell following a mock immobilization with buffer alone. For all cells, the flow rate was 10 al per min. The chip was blocked with 1M ethanolamine (pH 8.5). […] Binding traces were recorded for each dilution with a binding phase of 60 seconds and a dissociation phase of 240 seconds. Each cycle was performed at 20° C. with a constant flow rate of 20 l/min. An additional 240 seconds of buffer flow at 60 al per min across the cells was applied as a regeneration phase to facilitate complete dissociation of the compound from the protein. The sensograms were obtained by subtraction of the reference and buffer signals using the Biacore T100 Evaluation software. The binding curves were modeled with the PRISM (Graphpad Inc).

[2] = tested on: sAPP alpha; experiment: Secondary screen: sAPP alpha; assay type: cell-based; details: for sAPP alpha: increase (↑); for sAPP (α/β): increase (↑) of ratio
[3] = tested on: sAPP beta; experiment: Secondary screen: sAPP beta; assay type: cell-based; details: decrease (↓)
[4] = tested on: Aβ1-42; experiment: Aβ1-42 ELISA in SH-SY5Y neuroblastoma cells; assay type: cell-based, human; details: for IC50: Homo sapiens, SH-SY5Y, secondary screen
Experimental: SH-SY5Y neuroblastoma cells were seeded at 50,000 cells/well in a 96 wells plate for 24 h. Then their medium was changed for fresh medium supplemented with desired concentration of the hydantoin compound (e.g. compound 3). After 24 h, 20 al of the medium was added to 2 al of the complete protease inhibitor with 1 μM EDTA and kept at 4° C. until analysis using the ELISA assay below.
ELISA kits from Invitrogen were also used to quantify Aβ1-42 (KHB3544) in duplicate. For the Aβ 1-42 ultrasensitive ELISA, samples were diluted 1:2 (50 al CSF plus 50 μl kit-provided standard diluent buffer). Assays were performed according to manufacturer's instructions. In short, standards and samples were added to a plate pre-coated with a monoclonal capture antibody specific for the amino terminus of Hu Aβ. The samples were co-incubated with a rabbit detection antibody (Ab) specific for the carboxy terminus of the Aβ species being assayed for 3 hr at room temperature overnight at 4° (Aβ 1-42) with gentle rocking. After washing, bound rabbit Ab was detected using a horseradish peroxidase-labeled anti-rabbit secondary Ab. After washing again, bound HRP-anti rabbit Ab was detected colorimetrically (Spectramax 190, Molecular Devices) by the addition of a substrate solution. 1 mM 4-(2-Aminoethyl) benzenesulfonyl fluoride hydrochloride (AEBSF) protease inhibitor (101500, Calbiochem) was added to standards and samples.

[5] = tested on: Aβ42; experiment: Aβ lowering in NTg mice; assay type: in vivo; details: 1 mpk
Experimental: Compound 2 and other hydantoins were produced (see, e.g., compounds 1-5 pharmacokinetic evaluation of these hydantoins was determined in brain uptake assays using NTg mice (see, e.g., Table 1). It was also determined that Compound 1 lowered Aβ42 in the same animals at 5 mpk, while compound 3 lowered Aβ at 1 mpk.

[6] = biological target: NRG1-BACE1 (Homo sapiens (Human), UniProt P56817); experiment: NRG1-BACE cleavage in transfected HEK 293 cells (SEAP/lacZ); assay type: cell-based
Sequence of NRG1-BACE1 (P56817 46-501): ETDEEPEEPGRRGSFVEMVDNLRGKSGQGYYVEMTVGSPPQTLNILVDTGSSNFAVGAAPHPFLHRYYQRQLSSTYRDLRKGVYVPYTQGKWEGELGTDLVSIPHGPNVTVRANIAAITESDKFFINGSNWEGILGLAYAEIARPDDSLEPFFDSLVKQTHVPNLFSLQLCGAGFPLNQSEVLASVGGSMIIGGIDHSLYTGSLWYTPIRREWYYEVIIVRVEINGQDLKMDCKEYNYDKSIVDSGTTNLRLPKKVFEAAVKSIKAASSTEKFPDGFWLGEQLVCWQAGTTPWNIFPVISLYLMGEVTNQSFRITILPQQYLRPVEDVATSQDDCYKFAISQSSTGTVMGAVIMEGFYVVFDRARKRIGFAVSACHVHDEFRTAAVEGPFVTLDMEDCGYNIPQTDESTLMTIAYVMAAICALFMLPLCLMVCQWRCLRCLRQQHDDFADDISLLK
Experimental: (§1) Briefly, in order to determine the PSGL-1-BACE1 IC50 IC50 HEK 293 cells were plated in 24 well plates and transiently cotransfected with either PSGL1/lacZ or NRG1/lacZ constructs using Lipofectamine 2000; manufacturer protocol was followed. Two hours after adding the DNA-lipid complex to the cells a BACE inhibitor was added to each well, then cells were incubated overnight at 37° C. and 5% CO2. Cultured medium was collected to determine NRG1 or PSGL1, and cells were lysed to measure lacZ levels. Sigma SEAP kit standard protocol was conducted on the cultured medium to detect levels of PSGL1 or NRG1. Promega kit instructions were followed to determine lacZ concentration. The ratio of PSGL1/lacz vs [BACE inhibitor] or were plotted to determine the BACE1-IC50 on each of the substrate using GraphPad Prism 5 (FIG. 6B).

[7] = biological target: PSGL-1-BACE1 (Homo sapiens (Human), UniProt P56817); experiment: PSGL1-BACE cleavage in transfected HEK 293 cells (SEAP/lacZ); assay type: cell-based; details: APP-BACE vs PSGL1-BACE cleavage
Sequence of PSGL-1-BACE1 (P56817 46-501): as above
Experimental: as §1

Sequence of TRX-eAPP575-624 (P05067 650-699): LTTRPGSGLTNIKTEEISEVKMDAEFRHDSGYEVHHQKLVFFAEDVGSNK

Row | Compound | Kd [1] [µM] | Kd ([1]; Table 1, SPR, read-out: APP binding Kd) [µM] | sAPP alpha [2] | sAPP (α/β) [2] | sAPP beta [3] | IC50 [4] [µM] | Inhibition of Aβ / Aβ42 production ([4]; SH-SY5Y cells) | Aβ lowering in vivo [5] | Selectivity for APP over NRG1 ([6]; APP-BACE vs NRG1-BACE cleavage) [fold] | IC50 ([6]; secondary screen, read-out: NRG1-BACD1 IC50) [µM] | Selectivity for APP over PSGL1 [7] [fold]
1 | CN1C(=O)C(c2ccccc2)(c2cc(F)cc(F)c2)N=C1N (stereo not drawn) [FAH-1] | 5 | – | – | – | – | – | – | – | – | – | –
2 | Cc1cc(C2(c3cc(F)cc(F)c3)N=C(N)N(C)C2=O)ccc1OC(F)F (stereo not drawn) [FAH-3, 2-amino-4-(4-(difluoromethoxy)-3-methylphenyl)-4-(3,5-difluorophenyl)-1-methyl-1H-imidazol-5(4H)-one] | – | 0.3 | ↑ > 10% | ↑≈10% | ↓ < 20% | > 1 | inhibition of Aβ production | lowered Aβ | – | – | –
3 | Cc1cc(C2(c3cccc(F)c3)N=C(N)N(C)C2=O)ccc1OC(F)F (stereo not drawn) [FAH-17, 2-amino-4-(4-(difluoromethoxy)-3-methylphenyl)-4-(3-fluorophenyl)-1-methyl-1H-imidazol-5(4H)-one] | – | – | ↑ > 20% | ↑ > 100% | ↓ < 50% | > 1 | – | – | > 10 | > 1 | > 200
4 | Cc1cc(F)cc(C2(c3ccc(OC(F)F)c(C)c3)N=C(N)N(C)C2=O)c1 (stereo not drawn) [FAH-22, 2-amino-4-(4-(difluoromethoxy)-3-methylphenyl)-4-(3-fluoro-5-methylphenyl)-1-methyl-1H-imidazol-5(4H)-one] | – | – | ↑ > 10% | ↑≈50% | ↓ < 20% | – | – | – | – | – | –
5 | Cc1cc(C2(c3cccc(Cl)c3)N=C(N)N(C)C2=O)ccc1OC(F)F (stereo not drawn) [FAH-23, 2-amino-4-(3-chlorophenyl)-4-(4-(difluoromethoxy)-3-methylphenyl)-1-methyl-1H-imidazol-5(4H)-one] | – | – | ↑ > 20% | ↑ > 50% | ↓ < 20% | – | – | – | – | – | –
6 | Cc1cccc(C2(c3ccc(OC(F)F)c(C)c3)N=C(N)N(C)C2=O)c1 (stereo not drawn) [FAH-27, 2-amino-4-(4-(difluoromethoxy)-3-methylphenyl)-1-methyl-4-(m-tolyl)-1H-imidazol-5(4H)-one] | – | – | ↑ > 30% | ↑ > 100% | ↓ < 30% | – | – | – | – | – | –
7 | Cc1cc(C2(c3cccc(C(F)(F)F)c3)N=C(N)N(C)C2=O)ccc1OC(F)F (stereo not drawn) [FAH-28] | – | – | ↑ > 20% | ↑ > 50% | ↓ < 20% | – | – | – | – | – | –
